The values below come from publication PMC8617627, “Novel DYRK1A Inhibitor Rescues Learning and Memory Deficits in a Mouse Model of Down Syndrome” (Pharmaceuticals, 2021).

Molecules are shown by their SMILES.

One series concerns the target DYRK3 (Homo sapiens, UniProt O43781). The series can be described thus: Kinase profile (33P ATP filter binding). The conditions noted are these: read-out: Remaining protein kinase activity. The series is classed as biochemical.
A further series has as its target CLK2 (Homo sapiens, UniProt P49760). The series can be described thus: Kinase profile (33P ATP filter binding). It counts as biochemical. The conditions noted are these: read-out: Remaining protein kinase activity.
Another series has as its target DYRK2 (Homo sapiens, UniProt Q92630). The series can be described thus: Kinase profile (33P ATP filter binding). It counts as biochemical. To be noted: read-out: Remaining protein kinase activity.
The target of another series is FGF-R1 (Homo sapiens, UniProt P11362). The series can be described thus: Kinase profile (33P ATP filter binding). The series is classed as biochemical. To be noted: read-out: Remaining protein kinase activity.
The target in the next series is GSK3b (Homo sapiens, UniProt P49841). The experiment in a line: Kinase profile (33P ATP filter binding). The series is classed as biochemical. To be noted: read-out: Remaining protein kinase activity.
In another series the target is DYRK1A (Homo sapiens, UniProt Q13627). The series can be described thus: Kinase profile (33P ATP filter binding). The conditions noted are these: read-out: Remaining protein kinase activity. It counts as biochemical.
In the next series the test system is Ts65Dn mice. The series can be described thus: Contextual fear conditioning. It counts as in vivo. How it is done: The capacity for contextual memory of 10- to 16-week old Ts65Dn mice was compared with age-matched euploid control mice using a fear conditioning protocol. Briefly, the mice were exposed for 3 min to the context test chamber serving as a conditioning stimulus, followed by an electric shock for 2 s representing the unconditioned stimulus. […] Freezing, defined as a species-specific defensive reaction characterized by lack of movement besides respiration and heartbeat, associated with crouching posture, was used as a measure of learning, and assessed for 180 s, every 9 s by two trained observers […] of the mouse genotypes and the pharmacological agent being used.
The capacity for contextual memory of 10- to 16-week-old Ts65Dn mice was compared with age-matched euploid control mice using the same fear conditioning protocol used in a previous work with the drug memantine. Briefly, the mice were exposed for 3 min to the context (Med Associates, St. Albans, VT, Modular Mouse Test Chamber) serving as a conditioning stimulus, followed by an electric shock (2 s, 0.7 mA, constant electric current) representing the unconditioned stimulus. […] Freezing, defined as a species-specific defensive reaction characterized by lack of movement besides respiration and heartbeat, associated with crouching posture, was used as a measure of learning, and assessed for 180 s, every 9 s by two trained observers […] of the mouse genotypes and the pharmacological agent being used. The mean number of observations indicating freezing behavior was expressed as percentage of freezing in relation to the total number of observations. All experiments were video-recorded, for automated video-analysis, confirmation of the trained-observer scores, and archival purposes.
In addition, the mice continued to consume these same food preparations during the two days necessary to perform the behavioral testing.

Series [1] is described as follows: Mouse IV pharmacokinetics (plasma and brain). It counts as in vivo. To be noted: for half-life: read-out: t½ (converted). As for the experimental part: In the mouse model, the PK-parameters were also determined in the brain samples. […] Samples are prepared by protein precipitation and/or dilution: tissues are homogenized first. Analysis is carried out using a generic internal standard, with matrix-matched calibration standards bracketing the study samples.
(§1) Samples were analyzed by high resolution accurate mass UHPLC-TOF MS. […] The mass spectrometer was operated in full scan mode, with positive ion electrospray data acquired over the m/z mass range 100–1000.

A short description of series [2]: Rat IV pharmacokinetics. To be noted: after IV bolus 1 mg/kg. It counts as in vivo.
Series [3] in a line: Rat IV pharmacokinetics. It counts as in vivo. The conditions noted are these: plasma. How it is done: For determining plasma pharmacokinetics blood samples (via cardiac puncture into heparinized tubes and centrifuged for plasma at 4 °C) were serially sampled via jugular vein at […], 0.5, 5, 15, and 30 min, 1, 2, 4, 8, and 24 h timepoints post dosing. Three animals per timepoint were sampled. All samples were stored at −20 °C pending analysis. Bioanalysis was carried out by UHPLC-TOF mass spectrometry using electrospray ionization against matrix matched calibration lines. The pharmacokinetic parameters were subsequently calculated by noncompartmental methods. Samples are prepared by protein precipitation and/or dilution: tissues are homogenized first. Analysis is carried out using a generic internal standard, with matrix-matched calibration standards bracketing the study samples. Samples were analyzed by high resolution accurate mass UHPLC-TOF MS. […] The mass spectrometer was operated in full scan mode, with positive ion electrospray data acquired over the m/z mass range 100–1000.

Series [4] can be described thus: Mouse PO pharmacokinetics (plasma and brain). It counts as in vivo. To be noted: for Tmax: po. As for the experimental part:
For determining plasma and brain pharmacokinetics blood samples (via cardiac puncture into heparinized tubes and centrifuged for plasma at 4 °C) and brains were terminally sampled at 0.25, 0.5, 1, 2, 3, 4, 6, and 8 h timepoints post dosing. Three animals per timepoint were sampled. The three animals designated for the 8 h timepoint were housed in a metabolism cage post-dosing for collection of urine. All samples were stored at −20 °C pending analysis. Bioanalysis was carried out by UHPLC-TOF mass spectrometry using electrospray ionization against matrix matched calibration lines.
The pharmacokinetic parameters were subsequently calculated by noncompartmental methods.
Samples are prepared by protein precipitation and/or dilution: tissues are homogenized first. Analysis is carried out using a generic internal standard, with matrix-matched calibration standards bracketing the study samples.
as §1

Series [5] in a line: Mouse microsome stability assay. It counts as in vitro ADME. To be noted: microsomes.
Setting [6] is: male, Sprague-Dawley, IV 1 mg/kg.

Chain of GSK3b (P49841 whole entry): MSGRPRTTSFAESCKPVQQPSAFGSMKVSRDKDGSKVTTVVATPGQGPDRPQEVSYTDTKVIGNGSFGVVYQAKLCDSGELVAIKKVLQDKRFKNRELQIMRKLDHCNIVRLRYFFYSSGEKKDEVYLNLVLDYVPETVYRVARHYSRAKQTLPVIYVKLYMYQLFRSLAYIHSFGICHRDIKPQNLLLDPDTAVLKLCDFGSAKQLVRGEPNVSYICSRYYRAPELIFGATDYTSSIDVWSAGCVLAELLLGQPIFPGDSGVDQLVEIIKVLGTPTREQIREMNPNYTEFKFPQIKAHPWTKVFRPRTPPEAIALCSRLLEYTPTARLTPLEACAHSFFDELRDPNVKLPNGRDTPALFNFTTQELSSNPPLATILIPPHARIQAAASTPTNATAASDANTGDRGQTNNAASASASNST
Chain of FGF-R1 (P11362 22-822): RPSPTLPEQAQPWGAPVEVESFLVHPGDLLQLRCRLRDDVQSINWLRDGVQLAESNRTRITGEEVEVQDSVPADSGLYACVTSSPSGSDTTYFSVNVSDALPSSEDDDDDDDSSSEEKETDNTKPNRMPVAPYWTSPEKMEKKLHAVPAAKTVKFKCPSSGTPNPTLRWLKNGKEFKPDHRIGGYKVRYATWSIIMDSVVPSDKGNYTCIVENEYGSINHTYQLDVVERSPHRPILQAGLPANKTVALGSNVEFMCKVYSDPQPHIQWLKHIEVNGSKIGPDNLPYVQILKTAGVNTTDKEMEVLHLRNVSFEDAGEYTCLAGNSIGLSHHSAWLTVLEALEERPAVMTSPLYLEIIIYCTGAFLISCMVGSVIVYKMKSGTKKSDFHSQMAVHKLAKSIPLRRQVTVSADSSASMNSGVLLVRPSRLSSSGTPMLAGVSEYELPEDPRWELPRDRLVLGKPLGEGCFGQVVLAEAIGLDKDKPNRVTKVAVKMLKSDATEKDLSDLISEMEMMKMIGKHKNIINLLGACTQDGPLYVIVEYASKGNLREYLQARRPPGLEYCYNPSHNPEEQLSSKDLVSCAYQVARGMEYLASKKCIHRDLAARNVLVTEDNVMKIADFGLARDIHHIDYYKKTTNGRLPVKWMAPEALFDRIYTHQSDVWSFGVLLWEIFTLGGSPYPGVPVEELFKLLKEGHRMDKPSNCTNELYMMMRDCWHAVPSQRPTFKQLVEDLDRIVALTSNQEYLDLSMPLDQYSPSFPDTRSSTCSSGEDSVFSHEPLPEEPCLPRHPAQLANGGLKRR
Chain of DYRK2 (Q92630 whole entry): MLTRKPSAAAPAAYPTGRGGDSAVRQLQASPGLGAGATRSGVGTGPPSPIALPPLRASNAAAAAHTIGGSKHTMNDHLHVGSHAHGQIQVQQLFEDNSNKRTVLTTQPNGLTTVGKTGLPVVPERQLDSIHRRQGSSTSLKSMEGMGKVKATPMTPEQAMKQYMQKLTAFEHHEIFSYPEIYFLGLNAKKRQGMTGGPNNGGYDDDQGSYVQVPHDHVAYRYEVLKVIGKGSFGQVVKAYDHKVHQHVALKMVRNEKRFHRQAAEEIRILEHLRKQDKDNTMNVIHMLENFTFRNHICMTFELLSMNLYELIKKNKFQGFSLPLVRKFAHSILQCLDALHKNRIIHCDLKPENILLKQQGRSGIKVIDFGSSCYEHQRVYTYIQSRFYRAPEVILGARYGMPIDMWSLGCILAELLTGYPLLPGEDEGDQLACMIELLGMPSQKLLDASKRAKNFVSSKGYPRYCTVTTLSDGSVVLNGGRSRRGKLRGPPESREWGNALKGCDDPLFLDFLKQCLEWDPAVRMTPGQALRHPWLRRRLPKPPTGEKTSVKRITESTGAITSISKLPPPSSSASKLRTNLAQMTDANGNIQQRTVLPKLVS
Chain of DYRK3 (O43781 whole entry): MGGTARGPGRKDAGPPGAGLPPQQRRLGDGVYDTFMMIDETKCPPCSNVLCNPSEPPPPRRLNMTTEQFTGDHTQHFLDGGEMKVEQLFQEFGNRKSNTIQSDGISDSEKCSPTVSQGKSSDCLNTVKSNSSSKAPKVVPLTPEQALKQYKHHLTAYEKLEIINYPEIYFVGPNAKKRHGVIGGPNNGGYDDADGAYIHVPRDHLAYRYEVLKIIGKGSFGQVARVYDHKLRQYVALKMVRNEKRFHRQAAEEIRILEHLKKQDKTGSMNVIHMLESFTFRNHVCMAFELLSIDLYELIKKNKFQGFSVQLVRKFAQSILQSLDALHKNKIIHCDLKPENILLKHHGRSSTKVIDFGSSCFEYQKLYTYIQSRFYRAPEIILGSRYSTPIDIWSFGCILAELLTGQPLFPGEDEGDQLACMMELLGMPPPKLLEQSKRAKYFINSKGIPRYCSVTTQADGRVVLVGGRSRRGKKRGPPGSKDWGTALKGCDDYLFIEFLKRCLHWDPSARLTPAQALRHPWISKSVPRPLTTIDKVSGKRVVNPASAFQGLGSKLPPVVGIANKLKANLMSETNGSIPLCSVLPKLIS
Chain of CLK2 (P49760 whole entry): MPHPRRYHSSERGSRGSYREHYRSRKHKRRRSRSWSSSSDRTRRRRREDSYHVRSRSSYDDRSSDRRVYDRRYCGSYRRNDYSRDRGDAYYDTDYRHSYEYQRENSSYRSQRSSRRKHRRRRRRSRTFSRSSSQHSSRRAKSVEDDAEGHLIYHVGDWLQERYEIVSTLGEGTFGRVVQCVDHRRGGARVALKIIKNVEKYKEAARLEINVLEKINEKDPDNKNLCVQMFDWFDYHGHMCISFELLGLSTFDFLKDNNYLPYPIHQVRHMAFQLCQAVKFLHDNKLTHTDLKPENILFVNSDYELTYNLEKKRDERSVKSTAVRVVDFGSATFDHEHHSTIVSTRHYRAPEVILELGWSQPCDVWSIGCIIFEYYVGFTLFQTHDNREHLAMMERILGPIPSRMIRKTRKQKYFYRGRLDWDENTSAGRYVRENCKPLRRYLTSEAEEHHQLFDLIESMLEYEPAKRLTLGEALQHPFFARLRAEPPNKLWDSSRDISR

Usually remaining activity stands for the signal under treatment as a percentage of the control signal. On to `COc1ccc2sc(-c3cncc(N)c3)nc2c1` [compound 1, 5-(5-Methoxybenzo[d]thiazol-2-yl)pyridin-3-amine], for which the remaining activity at 1 µM is 14% at DYRK3 (1 μM); 23% at CLK2 (1 μM); 11% on DYRK2 (1 μM); 110% at FGF-R1 (1 μM); 107% at GSK3b (1 μM); 7% on DYRK1A (1 μM). In addition, the remaining activity at 100 µM on DYRK3 (100 μM) is 2%; at CLK2 (100 μM), 1%; on DYRK2 (100 μM), 1%; on FGF-R1 (100 μM) it was 91%; on GSK3b (100 μM), 25%; at DYRK1A (100 μM), 0%.
By Cmax is commonly meant the maximum level reached in the sampled fluid or tissue. For orientation: Vd means the apparent volume that relates the amount in the body to the concentration in plasma or blood. A higher Vd goes with wide distribution into tissue. As usually defined, the clearance is a measure of how efficiently the substance is removed, as volume per time. Consider `COc1ccc2sc(-c3cncc(NC(C)=O)c3)nc2c1` [PST-001, N-(5-(5-Methoxybenzo[d]thiazol-2-yl)pyridin-3-yl)acetamide], for which the “Learning and memory deficits (freezing in context test)” value with Ts65Dn mice (Ts65Dn mice, PST-001 in the food) is “completely eliminated the learning and memory deficits”. Moreover, the Tolerability entry in the series on Ts65Dn mice (Ts65Dn mice, chronic oral administration) is on record as “well tolerated”. Moreover, the “Percentage of freezing behavior” value with Ts65Dn mice (control euploid mice, PST-001 in the food) is recorded as “no detectable effects”. The Cmax in series [1] (C57Bl, IV 1 mg/kg, brain) amounted to 867 ng/mL; in series [1] (C57Bl, IV 1 mg/kg, plasma) it was 362 ng/mL; in the series “Rat IV pharmacokinetics [3]” (setting [6]), 647 ng/mL; in series [4] (male, C57BL/6, mouse, PO 5 mg/kg, brain) it was 153 ng/mL; in [4] (male, C57BL/6, mouse, PO 5 mg/kg, plasma), 76 ng/mL. Besides, the Tmax is 4.8 min in series [1] (C57Bl, IV 1 mg/kg, brain); 4.8 min in series [1] (C57Bl, IV 1 mg/kg, plasma); 1.8 min in “Rat IV pharmacokinetics [3]” (male, Sprague-Dawley, iv, 1 mg/kg, IV 1 mg/kg, read-out: Tmax); 2 min in the series “Rat IV pharmacokinetics [3]” (male, Sprague-Dawley, iv, 1 mg/kg, IV bolus 1 mg/kg, read-out: Time of maximum venous concentration (Tmax) (converted)); 15 min in series [4] (male, C57BL/6, mouse, brain, 5 mg/kg, mouse, PO 5 mg/kg); 15 min in series [4] (male, C57BL/6, mouse, plasma, 5 mg/kg, PO administration). The Tmax in series [4] (male, C57BL/6, mouse, plasma, 5 mg/kg, mouse, PO 5 mg/kg) amounted to 60 min. Besides, the half-life in series [1] (C57Bl, IV 1 mg/kg, brain) was 9 min; in [1] (C57Bl, IV 1 mg/kg, plasma), 9 min; in “Rat IV pharmacokinetics [3]” (Sprague-Dawley (rat), C57BL/6 (mouse), intravenous, oral, mouse or rat, IV or PO, read-out: t1/2 in plasma), less than 60 min; in the series “Rat IV pharmacokinetics [3]” (male, Sprague-Dawley, iv, 1 mg/kg, IV 1 mg/kg, read-out: t½ (converted)), 43.2 min; in the series “Rat IV pharmacokinetics [3]” (male, Sprague-Dawley, iv, 1 mg/kg, IV bolus 1 mg/kg, circulation, read-out: t½ (converted)), 43 min; in series [4] (male, C57BL/6, mouse, PO 5 mg/kg, brain, read-out: t½ (converted)), 16.2 min. For the same compound, in [5] (read-out: half-life (t½)), the half-life was 25 min. Besides, the Vd in series [1] (C57Bl, IV 1 mg/kg, plasma) was determined as 1.39 L/kg; in “Rat IV pharmacokinetics [3]” (setting [6]), 2.39 L/kg. Further, the clearance in series [1] (C57Bl, IV 1 mg/kg, plasma) was 198 mL/min/kg; in “Rat IV pharmacokinetics [3]” (setting [6]), 105 mL/min/kg. The AUCall in series [1] (IV 1 mg/kg, brain) worked out at 200 h ∗ ng/mL; in [1] (IV 1 mg/kg, plasma) it was 84 h ∗ ng/mL; in “Rat IV pharmacokinetics [3]” (IV 1 mg/kg), 158 h ∗ ng/mL; in series [4] (mouse, PO 5 mg/kg, brain), 189 h ∗ ng/mL; in series [4] (mouse, PO 5 mg/kg, plasma) it was 89 h ∗ ng/mL. The “Time of Cmax” value in series [1] (IV bolus, plasma) came out at 5 min. Also, the “PST-001 in the urine” value in “Rat IV pharmacokinetics [2]” is “No PST-001 could be found”. Besides, the Kp in [4] (male, C57BL/6, mouse, brain, 5 mg/kg, at Tmax after PO administration, read-out: brain level as share of the plasma level) turned out to be 0.5. The microsomal CLint in series [5] (read-out: intrinsic clearance, Cint) is 55 µL/min/mg.
